Reference: patent US8192962B2, “Processes for detecting toxic substances” (Daikin Industries, Ltd., priority 2001, dated 2012)

System: Stress protein genes
Experiment: DNA chip mRNA expression in yeast, stress protein genes (Table 6)
Format: cell-based, Saccharomyces cerevisiae S288C
Experimental: Yeast (Saccharomyces cerevisiae S288C (α SUC2mal mel gap2 CUP1)) were incubated at 25° C. on YPD medium (yeast extract 1%, polypepton 2%, glucose 2%). One of toxic chemical substances was added to the cells at logarithmic growth phase, and the cells were further incubated for two hours. Cells were cultured without any chemical substance in the same condition, and were used as control. Concentrations of the chemical substances were defined to inhibit the growth of the yeast but not lead to death.
After completion of the incubation, the culture was centrifuged to collect the cells. To the cells, sodium acetate buffer (50 mM sodium acetate, 10 mM EDTA, 1% SDS) was added, and the mixture was shaken at 65° C. for five minutes, followed by returning to room temperature, and obtaining the supernatant, of which the procedures were repeated two times. To the supernatant, ½ amount of a solution of phenol/chloroform was added, and the mixture was centrifuged to give a supernatant, which was added with an equal amount of chloroform, and the mixture was centrifuged to give a supernatant. To the supernatant, an equal amount of isopropanol containing 0.3 M sodium acetate was added, and the mixture was allowed to stand at room temperature for 30 minutes, after which the mixture was centrifuged to give a sediment of the whole RNAs. Seventy % ethanol was added to the sediment, and the mixture was again centrifuged to give a sediment, which was then dried and dissolved in water. mRNA was isolated from the whole RNAs as followings. In view of the fact that a poly A chain is attached to the 3′ terminus of mRNA, a polynucleotide having a poly T structure which was immobilized on the surface of latex beads was used to trap the mRNA, and then the mRNA was washed and eluted with spine column (Oligotex-dT30<Super>mRNA Purification Kit, Takara). Reverse transcription of the mRNA was conducted with a reverse transcriptase (Super Script II Reverse Transcriptase; catalogue No. 18064-014, GibcoBRL) using fluorescence-labeled nucleotides to give cDNAs that were introduced with Cy3-dUTP or Cy5-dUTP during the reverse transcription.
The labeled cDNAs were dissolved in TE buffer (10mM Tris-HCl/1 mM EDTA, pH8.0), and the solution was dropped on the DNA chip containing the whole genes of yeast (DNA Chip Research Inc. Japan) so that the cDNAs were hybridized on the DNA chip at 65° C. for over 12 hours. The fluoresces intensity of the DNA chip was read with a scanner, and the ratio relative to the fluorescence intensity resulting from the absence of chemical substance was estimated as the following, which is shown in Tables 1 to 9: […]

CCCCCCCCCCCCc1ccc(S(=O)(=O)[O-])cc1.[Na+] [(17), sodium dodecylbenzosulfonate]
The level of expressed mRNA in the presence of chemical substance/The level of expressed mRNA in the absence of chemical substance (yeast gene YIL033C): 1.0
The level of expressed mRNA in the presence of chemical substance/The level of expressed mRNA in the absence of chemical substance (yeast gene YIR037W): 1.7
The level of expressed mRNA in the presence of chemical substance/The level of expressed mRNA in the absence of chemical substance (yeast gene YIR038C): 2.8
The level of expressed mRNA in the presence of chemical substance/The level of expressed mRNA in the absence of chemical substance (yeast gene YJL128C): 1.0
The level of expressed mRNA in the presence of chemical substance/The level of expressed mRNA in the absence of chemical substance (yeast gene YJL158C): 1.4
The level of expressed mRNA in the presence of chemical substance/The level of expressed mRNA in the absence of chemical substance (yeast gene YJL159W): 1.4
The level of expressed mRNA in the presence of chemical substance/The level of expressed mRNA in the absence of chemical substance (yeast gene YJL165C): 1.3
The level of expressed mRNA in the presence of chemical substance/The level of expressed mRNA in the absence of chemical substance (yeast gene YJR045C): 0.7
The level of expressed mRNA in the presence of chemical substance/The level of expressed mRNA in the absence of chemical substance (yeast gene YJR090C): 1.1
The level of expressed mRNA in the presence of chemical substance/The level of expressed mRNA in the absence of chemical substance (yeast gene YKL161C): 1.4
The level of expressed mRNA in the presence of chemical substance/The level of expressed mRNA in the absence of chemical substance (yeast gene YKL163W): 0.8
The level of expressed mRNA in the presence of chemical substance/The level of expressed mRNA in the absence of chemical substance (yeast gene YKL164C): 0.8
The level of expressed mRNA in the presence of chemical substance/The level of expressed mRNA in the absence of chemical substance (yeast gene YKL210W): 0.7
The level of expressed mRNA in the presence of chemical substance/The level of expressed mRNA in the absence of chemical substance (yeast gene YKR053C): 2.8
The level of expressed mRNA in the presence of chemical substance/The level of expressed mRNA in the absence of chemical substance (yeast gene YLL024C): 0.5
The level of expressed mRNA in the presence of chemical substance/The level of expressed mRNA in the absence of chemical substance (yeast gene YLL026W): 1.7
The level of expressed mRNA in the presence of chemical substance/The level of expressed mRNA in the absence of chemical substance (yeast gene YLL039C): 1.6
The level of expressed mRNA in the presence of chemical substance/The level of expressed mRNA in the absence of chemical substance (yeast gene YLL060C): 1.9
The level of expressed mRNA in the presence of chemical substance/The level of expressed mRNA in the absence of chemical substance (yeast gene YLR006C): 1.6
The level of expressed mRNA in the presence of chemical substance/The level of expressed mRNA in the absence of chemical substance (yeast gene YLR109W): 1.1
The level of expressed mRNA in the presence of chemical substance/The level of expressed mRNA in the absence of chemical substance (yeast gene YLR259C): 0.8
The level of expressed mRNA in the presence of chemical substance/The level of expressed mRNA in the absence of chemical substance (yeast gene YML007W): 1.0
The level of expressed mRNA in the presence of chemical substance/The level of expressed mRNA in the absence of chemical substance (yeast gene YML070W): 1.2
The level of expressed mRNA in the presence of chemical substance/The level of expressed mRNA in the absence of chemical substance (yeast gene YMR021C): 3.3
The level of expressed mRNA in the presence of chemical substance/The level of expressed mRNA in the absence of chemical substance (yeast gene YMR173W): 1.9
The level of expressed mRNA in the presence of chemical substance/The level of expressed mRNA in the absence of chemical substance (yeast gene YMR186W): 0.7
The level of expressed mRNA in the presence of chemical substance/The level of expressed mRNA in the absence of chemical substance (yeast gene YNL064C): 0.7
The level of expressed mRNA in the presence of chemical substance/The level of expressed mRNA in the absence of chemical substance (yeast gene YNL160W): 1.0
The level of expressed mRNA in the presence of chemical substance/The level of expressed mRNA in the absence of chemical substance (yeast gene YNL241C): 1.0
The level of expressed mRNA in the presence of chemical substance/The level of expressed mRNA in the absence of chemical substance (yeast gene YNR076W): 1.5
The level of expressed mRNA in the presence of chemical substance/The level of expressed mRNA in the absence of chemical substance (yeast gene YOL064C): 1.2
The level of expressed mRNA in the presence of chemical substance/The level of expressed mRNA in the absence of chemical substance (yeast gene YOL161C): 1.1
The level of expressed mRNA in the presence of chemical substance/The level of expressed mRNA in the absence of chemical substance (yeast gene YOR008C): 0.8
The level of expressed mRNA in the presence of chemical substance/The level of expressed mRNA in the absence of chemical substance (yeast gene YOR009W): 0.9
The level of expressed mRNA in the presence of chemical substance/The level of expressed mRNA in the absence of chemical substance (yeast gene YOR010C): 1.4
The level of expressed mRNA in the presence of chemical substance/The level of expressed mRNA in the absence of chemical substance (yeast gene YOR027W): 0.9
The level of expressed mRNA in the presence of chemical substance/The level of expressed mRNA in the absence of chemical substance (yeast gene YOR208W): 1.6
The level of expressed mRNA in the presence of chemical substance/The level of expressed mRNA in the absence of chemical substance (yeast gene YPL059W): 1.8
The level of expressed mRNA in the presence of chemical substance/The level of expressed mRNA in the absence of chemical substance (yeast gene YPL106C): 0.5
The level of expressed mRNA in the presence of chemical substance/The level of expressed mRNA in the absence of chemical substance (yeast gene YPL140C): 0.9
The level of expressed mRNA in the presence of chemical substance/The level of expressed mRNA in the absence of chemical substance (yeast gene YPL194W): 1.0
The level of expressed mRNA in the presence of chemical substance/The level of expressed mRNA in the absence of chemical substance (yeast gene YPL223C): 1.0
The level of expressed mRNA in the presence of chemical substance/The level of expressed mRNA in the absence of chemical substance (yeast gene YPL240C): 0.8
The level of expressed mRNA in the presence of chemical substance/The level of expressed mRNA in the absence of chemical substance (yeast gene YPR005C): 1.0
The level of expressed mRNA in the presence of chemical substance/The level of expressed mRNA in the absence of chemical substance (yeast gene YPR026W): 0.9
